The compounds below were run against binding of biotinylated human growth hormone (b-hGH) to the extracellular domain of its receptor (Homo sapiens, UniProt P01241) (assay: ELISA of binding of biotinylated human growth hormone (b-hGH) to the extracellular domain of its receptor). Conditions: inhibition of b-hGH (about 1.5 nM) binding to receptor-coated plates; compounds re-tested at multiple concentrations.
Sequence of binding of biotinylated human growth hormone (b-hGH) to the extracellular domain of its receptor (P01241 27-217): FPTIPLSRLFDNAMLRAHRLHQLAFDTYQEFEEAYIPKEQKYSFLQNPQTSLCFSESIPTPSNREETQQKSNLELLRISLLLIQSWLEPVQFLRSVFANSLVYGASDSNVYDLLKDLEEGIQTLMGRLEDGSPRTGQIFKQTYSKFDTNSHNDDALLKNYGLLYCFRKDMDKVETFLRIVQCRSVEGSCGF
Experimental: A collection of heterocyclic aromatic compounds (384 total; 1 mmol each) was obtained from Aldrich Chemical Company or prepared as described in Holan et al., J. Chem Soc. C, 20-25 (1967)) incorporated herein by reference. Each compound was dissolved in dimethyl sulfoxide (DMSO) to yield a 100-mM solution and arrayed in 96-well polypropylene deep-well plates (Beckman). Dilutions (10-fold in DMSO) were prepared from the parent plates; these 10-mM stocks were then diluted 50-fold in the screening assay as described below (200 μM final concentration; 2% DMSO).
Human growth hormone (100 μM) in phosphate-buffered saline (PBS) was treated with 2 molar equivalents of EZ-Link Sulfo-NHS-LC-biotin™ (Pierce 21335™) according to the manufacturer's instructions. Binding of the biotinylated human growth hormone (b-hGH) to the extracellular domain of its receptor was assayed in an ELISA format. Briefly, Nunc Maxi-Sorb™ 96-well plates were treated with a solution of the receptor (2 μg/mL) in phosphate-buffered saline (PBS) overnight at 4° C. Plates were then blocked with a 0.2% solution of bovine serum albumin (BSA; Sigma A-7638) in PBS for 2 hours at room temperature. An appropriate dilution of b-hGH (generally about 1.5 nM final concentration in PBS containing 0.05% Tween-20 T detergent) was added to polypropylene plates containing aliquots of the screening collection (147 μL b-hGH to 3 μL compound in DMSO) or DMSO alone, and the mixtures were allowed to equilibrate at room temperature for approximately 45 min. These mixtures were then transferred to the receptor-coated plates and allowed to stand for 15 min. Plates were washed (10 times) with PBS/Tween-20™. Streptavidin-HRP conjugate (Zymed Laboratories 43-4323™) followed by TMB peroxidase reagent (Kirkegaard & Perry Laboratories 50-76-03™) was used to detect bound b-hGH. Several potential inhibitor compounds were re-tested at multiple concentrations. Table 1 below provides IC50 of the compounds tested.
For Clc1ccc2nc(C(Cl)(Cl)Cl)[nH]c2c1 [(i)], the IC50 was 77 µM.
With ClC(Cl)(Cl)c1nc2ccccc2[nH]1 [(ii)] the IC50 was 170 µM.
In the case of Cn1c(C(Cl)(Cl)Cl)nc2ccccc21 [(iii)], the IC50 is reported as 150 µM.
With Cc1ccc2[nH]c(C(Cl)(Cl)Cl)nc2c1 [(iv)] the IC50 was 98 µM.
ClC(Cl)(Cl)c1nc2ccccc2o1 [(ix)] was tested, and the IC50 was over 1000 µM.
With Clc1cc2nc(C(Cl)(Cl)Cl)[nH]c2cc1Cl [(v)] the IC50 was 51 µM.
For FC(F)(F)c1nc2cc(Cl)ccc2[nH]1 [(vi)], the IC50 was over 1000 µM.
In the case of Clc1ccc2[nH]cnc2c1 [(vii)], the IC50 is reported as over 1000 µM.
Cc1nc2cc(Cl)ccc2[nH]1 [(viii)] gave an IC50 of over 1000 µM.
ClC(Cl)(Cl)c1nc2ccccc2s1 [(x)] was tested, and the IC50 was over 1000 µM.
Cc1nc2ccccc2[nH]1 [(xi)] showed an IC50 of over 1000 µM.
In the case of c1ccc2[nH]c(-c3cscn3)nc2c1 [(xii)], the IC50 is reported as over 1000 µM.
Compound Cc1ccc2[nH]cnc2c1 [(xiii)] has an IC50 of over 1000 µM.
